Reference: ChEMBL document CHEMBL4616599, “Molecular mechanism of C-phycocyanin induced apoptosis in LNCaP cells” (Bioorg Med Chem, 2020)
Activity calls are given as the source filed them.

Key:
Format in all cases: functional, cell-based
LNCaP [1] = assay: Cytotoxicity against human LNCAP cells assessed as reduction in cell viability at 10 uM after 24 hrs by trypan blue dye exclusion assay
LNCaP [2] = assay: Induction of apoptosis in human LNCAP cells assessed as increase in cleaved PARP expression at 500 ug/ml measured after 24 hrs by western blot analysis
LNCaP [3] = assay: Induction of apoptosis in human LNCAP cells assessed as up regulation of p53 expression at 10 uM measured after 24 hrs by immunoblot analysis
LNCaP [4] = assay: Induction of apoptosis in human LNCAP cells assessed as up regulation of p21 expression at 10 uM measured after 24 hrs by immunoblot analysis
LNCaP [5] = assay: Induction of apoptosis in human LNCAP cells assessed as increase in cleaved PARP expression at 10 uM measured after 24 hrs by Western blot analysis
LNCaP [6] = assay: Induction of apoptosis in human LNCAP cells assessed as decrease in uncleaved PARP expression at 10 uM measured after 24 hrs by Western blot analysis

Measured: Activity

CC[C@@]1(O)C(=O)OCc2c1cc1n(c2=O)Cc2cc3c(CN(C)C)c(O)ccc3nc2-1
active: all assays above
